Data as given in the NIST ThermoML archive (doi:10.1016/j.jct.2008.06.001).

How the values were obtained:
[1] = 101.33 kPa, Liquid; for speed of sound: Sing-around technique in a fixed-path interferometer
[2] = xn = mol fraction of the nth substance listed; conditions: 101 kPa, Liquid

CCCCCCCCCCO [decan-1-ol]
[1]
Conditions | mass density [kg/m3] | speed of sound [m/s]
293.15 K | 829.601 | 1396.2
298.15 K | 826.198 | 1378.9
303.15 K | 822.767 | 1361.7

CCCCCCCCCCO [decan-1-ol] + CCCCOCCCC
[2]
Conditions | mass density [kg/m3]
293.15 K, x1 = 0.1021 | 776.363
293.15 K, x1 = 0.1496 | 779.787
293.15 K, x1 = 0.1993 | 783.289
293.15 K, x1 = 0.25 | 786.71
293.15 K, x1 = 0.2996 | 789.984
293.15 K, x1 = 0.3412 | 792.683
293.15 K, x1 = 0.3978 | 796.258
293.15 K, x1 = 0.4468 | 799.27
293.15 K, x1 = 0.4978 | 802.397
293.15 K, x1 = 0.5495 | 805.461
293.15 K, x1 = 0.6009 | 808.42
293.15 K, x1 = 0.65 | 811.195
293.15 K, x1 = 0.6993 | 813.929
293.15 K, x1 = 0.7464 | 816.506
293.15 K, x1 = 0.7946 | 819.104
293.15 K, x1 = 0.8488 | 821.951
293.15 K, x1 = 0.9004 | 824.616
293.15 K, x1 = 0.95 | 827.118
298.15 K, x1 = 0.0516 | 768.307
298.15 K, x1 = 0.1006 | 772.051
298.15 K, x1 = 0.1498 | 775.68
298.15 K, x1 = 0.2012 | 779.315
298.15 K, x1 = 0.2522 | 782.834
298.15 K, x1 = 0.2996 | 786.011
298.15 K, x1 = 0.35 | 789.331
298.15 K, x1 = 0.3994 | 792.479
298.15 K, x1 = 0.4479 | 795.536
298.15 K, x1 = 0.4981 | 798.656
298.15 K, x1 = 0.5512 | 801.843
298.15 K, x1 = 0.5993 | 804.66
298.15 K, x1 = 0.6492 | 807.539
298.15 K, x1 = 0.6995 | 810.378
298.15 K, x1 = 0.7501 | 813.185
298.15 K, x1 = 0.7981 | 815.763
298.15 K, x1 = 0.8498 | 818.511
298.15 K, x1 = 0.9001 | 821.147
298.15 K, x1 = 0.9498 | 823.681
303.15 K, x1 = 0.0509 | 763.957
303.15 K, x1 = 0.1009 | 767.841
303.15 K, x1 = 0.1503 | 771.536
303.15 K, x1 = 0.1994 | 775.085
303.15 K, x1 = 0.25 | 778.691
303.15 K, x1 = 0.2996 | 782.028
303.15 K, x1 = 0.3498 | 785.36
303.15 K, x1 = 0.3992 | 788.589
303.15 K, x1 = 0.4451 | 791.54
303.15 K, x1 = 0.4944 | 794.601
303.15 K, x1 = 0.5509 | 798.05
303.15 K, x1 = 0.5921 | 800.526
303.15 K, x1 = 0.6514 | 803.989
303.15 K, x1 = 0.6896 | 806.226
303.15 K, x1 = 0.7493 | 809.528
303.15 K, x1 = 0.7963 | 812.111
303.15 K, x1 = 0.8475 | 814.866
303.15 K, x1 = 0.899 | 817.595
303.15 K, x1 = 0.9474 | 820.099

CCCCCCCO [heptan-1-ol]
[1]
Conditions | mass density [kg/m3] | speed of sound [m/s]
293.15 K | 822.398 | 1344
298.15 K | 818.894 | 1326.7
303.15 K | 815.357 | 1309.9

CCCCCCCO [heptan-1-ol] + CCCCOCCCC
[2]
Conditions | mass density [kg/m3]
293.15 K, x1 = 0.1017 | 773.953
293.15 K, x1 = 0.1519 | 776.565
293.15 K, x1 = 0.1998 | 779.042
293.15 K, x1 = 0.2503 | 781.671
293.15 K, x1 = 0.3495 | 786.842
293.15 K, x1 = 0.4019 | 789.598
293.15 K, x1 = 0.4529 | 792.309
293.15 K, x1 = 0.5013 | 794.907
293.15 K, x1 = 0.548 | 797.412
293.15 K, x1 = 0.6032 | 800.39
293.15 K, x1 = 0.6486 | 802.884
293.15 K, x1 = 0.7001 | 805.686
293.15 K, x1 = 0.7515 | 808.582
293.15 K, x1 = 0.7771 | 809.94
293.15 K, x1 = 0.8009 | 811.278
293.15 K, x1 = 0.8982 | 816.689
293.15 K, x1 = 0.947 | 819.42
298.15 K, x1 = 0.0513 | 767.002
298.15 K, x1 = 0.0991 | 769.571
298.15 K, x1 = 0.1526 | 772.412
298.15 K, x1 = 0.2019 | 775.005
298.15 K, x1 = 0.2506 | 777.565
298.15 K, x1 = 0.3033 | 780.366
298.15 K, x1 = 0.3498 | 782.806
298.15 K, x1 = 0.4 | 785.5
298.15 K, x1 = 0.4523 | 788.317
298.15 K, x1 = 0.4995 | 790.883
298.15 K, x1 = 0.5491 | 793.589
298.15 K, x1 = 0.6026 | 796.53
298.15 K, x1 = 0.6503 | 799.167
298.15 K, x1 = 0.6985 | 801.859
298.15 K, x1 = 0.7533 | 804.902
298.15 K, x1 = 0.8005 | 807.562
298.15 K, x1 = 0.8485 | 810.291
298.15 K, x1 = 0.8994 | 813.176
298.15 K, x1 = 0.9439 | 815.703
303.15 K, x1 = 0.0548 | 762.859
303.15 K, x1 = 0.1037 | 765.526
303.15 K, x1 = 0.1537 | 768.203
303.15 K, x1 = 0.2034 | 770.861
303.15 K, x1 = 0.2496 | 773.336
303.15 K, x1 = 0.3003 | 776.062
303.15 K, x1 = 0.3482 | 778.634
303.15 K, x1 = 0.3977 | 781.333
303.15 K, x1 = 0.4501 | 784.185
303.15 K, x1 = 0.4938 | 786.627
303.15 K, x1 = 0.5487 | 789.635
303.15 K, x1 = 0.6009 | 792.536
303.15 K, x1 = 0.6508 | 795.355
303.15 K, x1 = 0.6994 | 798.099
303.15 K, x1 = 0.7519 | 801.07
303.15 K, x1 = 0.8005 | 803.865
303.15 K, x1 = 0.851 | 806.755
303.15 K, x1 = 0.8994 | 809.543
303.15 K, x1 = 0.946 | 812.239

CCCCCCCCO [octan-1-ol]
[1]
Conditions | mass density [kg/m3] | speed of sound [m/s]
293.15 K | 825.183 | 1364.3
298.15 K | 821.732 | 1347.1
303.15 K | 818.248 | 1330.2
